Measurements published in patent US3931314A, “Benzophenone derivatives and process for their production” (Cassella Farbwerke Mainkur Aktiengesellschaft, priority 1972, dated 1976).

Assays:
[1] = LD50 (mouse), acute toxicity; details: in vivo
central nervous system = experiment: climbing test on albino mice, sedative action on the central nervous system; assay type: in vivo; details: Mus musculus, po, read-out: Sedative action % (percentage of animals which no longer take up the climbing work); for responders at 8 mg/kg: dose 8 mg/kg p.o.; for responders at 10 mg/kg: dose 10 mg/kg p.o.
Description: The pharmacological investigation of the sedative action on the central nervous system was carried out using the climbing tests on albino mice described by P. K. KNEIP: Arch. int. pharmacodyn 126, 238 (1960) and R. DOMENJOZ and W. THEOBALD: Arch. int. pharmacodyn 120, 450 (1959).
In the table which follows, the results of the pharmacological investigations carried out are summarised. In the last table under the heading "Sedative action %" there is given the percentage of the experimental animals which no longer take up the normally readily assumed climbing work.

Compound | LD50 ([1]; ip) [mg/kg] | responders at 8 mg/kg (central nervous system) [%] | other results
COc1ccc(N(C)C(=O)CNC(C)CC#N)c(C(=O)c2ccccc2)c1 (stereo not shown) [2-(5-Cyano-N,4-dimethyl-3-aza-pentanamido)-5-methoxy-benzophenone] | 250 | 60 | –
CCOC(=O)CCCNCC(=O)Nc1ccc([N+](=O)[O-])cc1C(=O)c1ccccc1 [2-(6-ethoxycarbonyl-3-aza-hexanamido)-5-nitro-benzophenone] | – | 50 | –
CC(CC#N)NCC(=O)N(C)c1ccccc1C(=O)c1ccccc1 (stereo not shown) [2-(5-Cyano-N,4-dimethyl-3-aza-pentanamido)-benzophenone] | 320 | 70 | –
CN(CCC(=O)O)CC(=O)Nc1ccc(Cl)cc1C(=O)c1ccccc1 [2-(5-Carboxy-3-methyl-3-aza-pentanamido)-5-chlor-benzophenone] | 450 | 90 | –
CCOC(=O)CCNCC(=O)N(C)c1ccc(C(F)(F)F)cc1C(=O)c1ccccc1 [2-(5-ethoxycarbonyl-N-methyl-3-aza-pentanamido)-5-trifluormethyl-benzophenone] | 400 | 60 | –
CCOC(=O)CCNCC(=O)Nc1ccc(Cl)cc1C(=O)c1ccccc1Cl [2-(5-ethoxycarbonyl-3-aza-pentanamido)-2',5-dichlor-benzophenone] | – | 70 | –
CCOC(=O)CCNCC(=O)N(C)c1ccc(SC)cc1C(=O)c1ccccc1 [2-(5-ethoxycarbonyl-N-methyl-3-aza-pentanamido)-5-methylmerkapto-benzophenone] | – | 60 | –
CN(C(=O)CNCC#N)c1ccc(Cl)cc1C(=O)c1ccccc1 [2-(4-Cyano-N-methyl-3-aza-butanamido)-5-chlor-benzophenone] | 170 | 60 | –
CC(CC#N)NCC(=O)Nc1ccccc1C(=O)c1ccccc1 (stereo not shown) [2-(5-Cyano-4-methyl-3-aza-pentanamido)-benzophenone] | – | – | LD50 ([1]; po): > 1000 mg/kg; responders at 10 mg/kg (central nervous system): 50%
COC(=O)CNCC(=O)N(C)c1ccc(Cl)cc1C(=O)c1ccccc1 [2-(4-Methoxycarbonyl-N-methyl-3-aza-butanamido)-5-chlor-benzophenone] | – | – | LD50 ([1]; po): 950 mg/kg; responders at 10 mg/kg (central nervous system): 50%
CCOC(=O)CCCNCC(=O)N(C)c1ccc([N+](=O)[O-])cc1C(=O)c1ccccc1 [2-(6-ethoxycarbonyl-N-methyl-3-aza-hexanamido)-5-nitro-benzophenone] | 650 | 60 | –
CN(CCC#N)CC(=O)N(C)c1ccc(Cl)cc1C(=O)c1ccccc1 [2-(5-Cyano-N,3-dimethyl-3-aza-pentanamido)-5-chlor-benzophenone] | 240 | 50 | –
CC(C#N)CNCC(=O)Nc1ccc(Cl)cc1C(=O)c1ccccc1 (stereo not shown) [2-(5-Cyano-3-aza-hexanamid0)-5-chlor-benzophenone] | 600 | 50 | –
CC(C#N)CN(C)CC(=O)N(C)c1ccc([N+](=O)[O-])cc1C(=O)c1ccccc1 (stereo not shown) [2-(5-Cyano-N,3-dimethyl-3-aza-hexanamido)-5-nitro-benzophenone] | 480 | – | LD50 ([1]; po): 1100 mg/kg; responders at 10 mg/kg (central nervous system): 60%
CCCCN(CCC#N)CC(=O)N(C)c1ccc(Cl)cc1C(=O)c1ccccc1 [2-(5-Cyano-N-methyl-3-n-butyl-3-aza-pentanamido)-5-chlor-benzophenone] | 360 | 80 | –
C=CCN(CCC#N)CC(=O)Nc1ccc(Cl)cc1C(=O)c1ccccc1Cl [2-(5-Cyano-3-allyl-3-aza-pentanamido)-2'-5-dichlor-benzophenone] | 630 | 60 | –
CN(CCCC#N)CC(=O)Nc1ccc(Cl)cc1C(=O)c1ccccc1 [2-(6-Cyano-3-methyl-3-aza-hexanamido)-5-chlor-benzophenone] | – | 60 | –
CCCC(C)(COC(N)=O)COC(N)=O [Meprobamate, reference compound] | 620 | – | responders at 70 mg/kg (central nervous system; dose 70 mg/kg p.o., comparative preparation): 50%
CCCCN(CCC#N)CC(=O)N(C)c1ccc([N+](=O)[O-])cc1C(=O)c1ccccc1 [2-(5-Cyano-N-methyl-3-n-butyl-3-aza-pentanamido)-5-nitro-benzophenone] | 680 | 50 | –
COc1ccc(N(C)C(=O)CNCCC#N)c(C(=O)c2ccccc2)c1 [2-(5-Cyano-N-methyl-3-aza-pentanamido)-5-methoxy-benzophenone] | – | 50 | –
CC(CC#N)N(C)CC(=O)N(C)c1ccc(Cl)cc1C(=O)c1ccccc1 (stereo not shown) [2-(5-Cyano-N,3,4-trimethyl-3-aza-pentanamido)-5-chlor-benzophenone] | 320 | – | responders at 9 mg/kg (central nervous system; dose 9 mg/kg p.o.): 50%
CCOC(=O)CCNCC(=O)N(C)c1ccc(C)cc1C(=O)c1ccccc1 [2-(5-ethoxycarbonyl-N-methyl-3-aza-pentanamido)-5-methyl-benzophenone] | – | 50 | –
Cc1ccc(N(C)C(=O)CNC(C)CC#N)c(C(=O)c2ccccc2)c1 (stereo not shown) | 300 | 70 | –
CC(CC#N)NCC(=O)N(C)c1ccc(Cl)cc1C(=O)c1ccccc1 (stereo not shown) [2-(5-Cyano-N,4-dimethyl-3-aza-pentanamido)-5-chlor-benzophenone] | 315 | 50 | –
Cc1ccc(N(C)C(=O)CNCCC#N)c(C(=O)c2ccccc2)c1 [2-(5-Cyano-N-methyl-3-aza-pentanamido)-5-methyl-benzophenone] | – | 50 | –
CN(CCC#N)CC(=O)N(C)c1ccc([N+](=O)[O-])cc1C(=O)c1ccccc1 [2-(5-Cyano-N,3-dimethyl-3-aza-pentanamido)-5-nitro-benzophenone] | – | – | LD50 ([1]; po): > 1000 mg/kg; responders at 10 mg/kg (central nervous system): 50%
